According to ChEMBL document CHEMBL5608216, “Discovery of a novel Xanthone derivative P24 for anti-AD via targeting sTGFBR3” (Eur J Med Chem, 2024):
Activity calls are given as the source filed them. No cut-off for these calls is given here.

Legend:
[1] = system: BV-2; test: Antiinflammatory activity in LPS-induced mouse BV-2 cells assessed as inhibition of NO production incubated for 24 hrs by Griess reagent based analysis; type: functional, cell-based; details: BV-2, 24 h
[2] = Cytotoxicity against LPS-induced mouse BV-2 cells assessed as survival rate at 10 uM measured after 24 hrs by MTT assay relative to control; type: toxicity, cell-based; details: LPS-induced BV-2 cells, read-out: Survival
[3] = system: BV-2; test: Activation of TGF-beta pathway in APP/PS1/tau mouse brain extract-induced mouse BV-2 cells assessed as increase in phosphorylated SMAD2/3 protein level by immunoblot analysis; type: cell-based; details: filed as activator
[4] = biological target: T1, Transforming growth factor beta receptor type 3 (Mus musculus) (UniProt O88393); test: Binding affinity to sTGFBR3 in APP/PS1/tau mouse brain extract-induced mouse BV-2 cells at 37 to 77 degreeC measured after 3 hrs by CETSA; type: cell-based
T1 sequence (whole entry): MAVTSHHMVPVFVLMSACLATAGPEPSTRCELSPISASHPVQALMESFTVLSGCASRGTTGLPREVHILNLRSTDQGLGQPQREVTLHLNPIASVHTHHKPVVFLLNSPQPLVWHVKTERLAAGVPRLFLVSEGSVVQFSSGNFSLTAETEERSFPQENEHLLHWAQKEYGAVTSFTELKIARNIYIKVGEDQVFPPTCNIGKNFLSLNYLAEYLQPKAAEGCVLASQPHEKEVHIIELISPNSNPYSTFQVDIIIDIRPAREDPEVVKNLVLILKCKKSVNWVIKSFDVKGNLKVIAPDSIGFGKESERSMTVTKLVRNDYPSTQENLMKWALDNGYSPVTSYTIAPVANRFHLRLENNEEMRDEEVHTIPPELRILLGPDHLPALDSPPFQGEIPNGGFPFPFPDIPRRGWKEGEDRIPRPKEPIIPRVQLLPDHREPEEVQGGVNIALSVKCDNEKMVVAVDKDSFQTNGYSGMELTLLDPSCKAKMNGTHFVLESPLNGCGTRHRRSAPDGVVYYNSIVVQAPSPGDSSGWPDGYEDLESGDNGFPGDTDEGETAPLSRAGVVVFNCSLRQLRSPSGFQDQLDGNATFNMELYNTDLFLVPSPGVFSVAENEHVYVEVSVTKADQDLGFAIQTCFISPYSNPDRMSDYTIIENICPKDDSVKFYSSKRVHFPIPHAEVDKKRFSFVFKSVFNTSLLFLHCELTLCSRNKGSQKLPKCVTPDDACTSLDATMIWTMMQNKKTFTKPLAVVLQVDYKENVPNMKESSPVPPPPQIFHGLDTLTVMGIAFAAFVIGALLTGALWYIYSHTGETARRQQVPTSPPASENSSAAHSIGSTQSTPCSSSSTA

[5] = Permeability of compound measured after 18 hrs by UV spectrophotometer based PAMPA; type: ADME
[6] = system: BV-2; test: Inhibition of NF-kappaB activation in APP/PS1/tau triple transgenic mouse brain extract-induced mouse BV-2 cells assessed as reduction in IKK complex formation by immunoblot analysis; type: cell-based; details: dose 1.25-10 µM
[7] = system: BV-2; test: Antiinflammatory activity in APP/PS1/tau triple transgenic mouse brain extract-induced mouse BV-2 cells assessed as reduction in TNFalpha expression by immunoblot analysis; type: functional, cell-based; details: dose 1.25-10 µM
[8] = Tmax in Sprague-Dawley rat at 50 mg/kg, po administered as single dose and measured upto 48 hrs; type: ADME, organism-based; details: in vivo
[9] = system: BV-2; test: Antiinflammatory activity in APP/PS1/tau triple transgenic mouse brain extract-induced mouse BV-2 cells assessed as reduction in IL-1beta expression by immunoblot analysis; type: functional, cell-based; details: dose 1.25-10 µM
[10] = system: BV-2; test: Activation of TGF-beta pathway in APP/PS1/tau triple transgenic mouse brain extract-induced mouse BV-2 cells assessed as increase in phosphorylated SMAD2/3 protein expression by immunoblot analysis; type: cell-based; details: filed as activator, dose 1.25-10 µM
[11] = system: BV-2; test: Inhibition of NF-kappaB activation in APP/PS1/tau triple transgenic mouse brain extract-induced mouse BV-2 cells assessed as inhibition of phosphorylated p65 protein expression by immunoblot analysis; type: cell-based; details: dose 1.25-10 µM
[12] = system: BV-2; test: Antiinflammatory activity in APP/PS1/tau triple transgenic mouse brain extract-induced mouse BV-2 cells assessed as reduction in CD86 expression by immunoblot analysis; type: functional, cell-based; details: dose 1.25-10 µM
[13] = system: BV-2; test: Antiinflammatory activity in APP/PS1/tau triple transgenic mouse brain extract-induced mouse BV-2 cells assessed as increase in CD206 expression by immunoblot analysis; type: functional, cell-based; details: dose 1.25-10 µM
[14] = MRT (0 to infinity) in Sprague-Dawley rat at 50 mg/kg, po administered as single dose and measured upto 48 hrs; type: ADME, organism-based; details: in vivo
[15] = system: BV-2; test: Enhancement of amyloid beta phagocytosis in APP/PS1/tau triple transgenic mouse brain extract-induced mouse BV-2 cells assessed as increase in fluorescence intensity pretreated for 1 hr followed by brain extract treatment and measured after 24 hrs by Thioflavin T staining based assay; type: functional, cell-based; details: dose 1.25-10 µM, time 25.0 hrs
[16] = Toxicity in C57BL/6 mouse assessed as mortality at 2000 mg/kg, po measured after 3 to 24 hrs; type: organism-based; details: in vivo, time 3-24 hrs
[17] = system: BV-2; test: Inhibition of NF-kappaB activation in APP/PS1/tau triple transgenic mouse brain extract-induced mouse BV-2 cells assessed as inhibition of phosphorylated IKBalpha protein expression by immunoblot analysis; type: cell-based; details: dose 1.25-10 µM
[18] = system: BV-2; test: Antiinflammatory activity in APP/PS1/tau triple transgenic mouse brain extract-induced mouse BV-2 cells assessed as increase in IL-10 expression by immunoblot analysis; type: functional, cell-based; details: dose 1.25-10 µM
[19] = Elimination half life in Sprague-Dawley rat at 50 mg/kg, po administered as single dose and measured upto 48 hrs; type: ADME, organism-based; details: in vivo, read-out: beta t1/2 (converted)
[20] = AUC (0 to t) in Sprague-Dawley rat at 50 mg/kg, po administered as single dose and measured upto 48 hrs; type: ADME, organism-based; details: in vivo
[21] = system: BV-2; test: Antiinflammatory activity in APP/PS1/tau triple transgenic mouse brain extract-induced mouse BV-2 cells assessed as increase in IL-4 expression by immunoblot analysis; type: functional, cell-based; details: dose 1.25-10 µM
[22] = Cmax in Sprague-Dawley rat at 50 mg/kg, po administered as single dose and measured upto 48 hrs; type: ADME, organism-based; details: in vivo

`COc1ccc(CCNC(=O)COc2ccc3c(=O)c4ccccc4oc3c2)cc1` showed an IC50 [1] of 860 nM and a viability at 24 h, 10 µM [2] of 54.4%.
`CN1CCN(c2ccc(NC(=O)COc3ccc4c(=O)c5ccccc5oc4c3)nc2)CC1` showed an IC50 [1] of 1190 nM and a viability at 24 h, 10 µM [2] of 86%.
In the case of `O=C(COc1ccc2c(=O)c3ccccc3oc2c1)NCc1cccc(F)c1`, the IC50 [1] is reported as > 30000 nM and the viability at 24 h, 10 µM [2] is reported as 97.2%.
With `O=C(COc1ccc2c(=O)c3ccccc3oc2c1)NCc1ccccn1` the IC50 [1] was 2430 nM and the viability at 24 h, 10 µM [2] was 69.1%.
In the case of `O=C(COc1ccc2c(=O)c3ccccc3oc2c1)N1CCOCC1`, the IC50 [1] is reported as 2490 nM, the viability at 24 h, 10 µM [2] is reported as 108% and the Activity [3] is reported as “Active”. For the same compound, the Activity ([4]; filed as antagonist) was “Active”.
In the case of `O=c1c2ccccc2oc2ccccc12` [XANTHONE], the IC50 [1] is reported as 21200 nM and the viability at 24 h, 10 µM [2] is reported as 95.4%.
`Cc1ccc(CCNC(=O)COc2ccc3c(=O)c4ccccc4oc3c2)cc1` showed an IC50 [1] of 3420 nM and a viability at 24 h, 10 µM [2] of 47.9%.
For `O=C(COc1ccc2c(=O)c3ccccc3oc2c1)Nc1ccccn1`, the IC50 [1] was > 30000 nM and the viability at 24 h, 10 µM [2] was 87.4%.
With `O=C(COc1ccc2c(=O)c3ccccc3oc2c1)NCc1ccccc1F` the IC50 [1] was 1720 nM and the viability at 24 h, 10 µM [2] was 84.6%.
In the case of `CCn1cc(C(=O)O)c(=O)c2cc(F)c(N3CCNCC3)nc21` [ENOXACIN], the permeability [5] is reported as 43.26%.
In the case of `O=C(COc1ccc2c(=O)c3ccccc3oc2c1)Nc1ccncc1`, the IC50 [1] is reported as 2790 nM and the viability at 24 h, 10 µM [2] is reported as 108%.
With `O=C(COc1ccc2c(=O)c3ccccc3oc2c1)N(Cc1ccccc1)Cc1ccccc1` the IC50 [1] was 6380 nM and the viability at 24 h, 10 µM [2] was 99.7%.
For `O=C(COc1ccc2c(=O)c3ccccc3oc2c1)NCc1cccnc1`, the IC50 [1] was 16000 nM and the viability at 24 h, 10 µM [2] was 75.4%.
Compound `O=C(COc1ccc2c(=O)c3ccccc3oc2c1)NCc1ccc(Cl)cc1` has an IC50 [1] of 1230 nM and a viability at 24 h, 10 µM [2] of 40.4%.
In the case of `O=C(COc1ccc2c(=O)c3ccccc3oc2c1)NCCc1ccc(Cl)cc1`, the IC50 [1] is reported as 1530 nM and the viability at 24 h, 10 µM [2] is reported as 38.5%.
Compound `CCC(NC(=O)COc1ccc2c(=O)c3ccccc3oc2c1)c1ccccn1` (stereo not given) has an IC50 [1] of 5430 nM and a viability at 24 h, 10 µM [2] of 98.5%.
For `O=C(COc1ccc2c(=O)c3ccccc3oc2c1)NCC1CCOCC1`, the IC50 [1] was 520 nM, the inhibition [6] was “Dose-Dependent Effect” and the viability at 24 h, 10 µM [2] was 105%. The Activity [7] was “Dose-Dependent Effect”, the Tmax [8] was 12 h and the Activity [9] was “Dose-Dependent Effect”. For the same compound, the Activity [10] was “Dose-Dependent Effect”, the inhibition [11] was “Dose-Dependent Effect” and the Activity [12] was “Dose-Dependent Effect”. For the same compound, the Activity [3] was “Active”, the Activity [13] was “Dose-Dependent Effect” and the MRT inf [14] was 14.5 h. For the same compound, the Activity [15] was “Dose-Dependent Effect”, the Activity [16] was “Non-Toxic” and the inhibition [17] was “Dose-Dependent Effect”. The permeability [5] was 79.33%, the Activity [18] was “Dose-Dependent Effect” and the half-life [19] was 10.3 h. For the same compound, the AUCt [20] was 4738.426 ng·h/mL, the Activity [21] was “Dose-Dependent Effect” and the Cmax [22] was 304 ng/mL. For the same compound, the Activity ([4]; filed as antagonist) was “Active”.
With `C[C@]12CCC(=O)C=C1CC[C@@H]1[C@@H]2CC[C@]2(C)C(=O)CC[C@@H]12` [ANDROSTENEDIONE] the permeability [5] was 87.28%.
In the case of `O=C(COc1ccc2c(=O)c3ccccc3oc2c1)NCc1ccc(F)cc1`, the IC50 [1] is reported as 2020 nM and the viability at 24 h, 10 µM [2] is reported as 82.8%.
In the case of `O=C(COc1ccc2c(=O)c3ccccc3oc2c1)Nc1cccnc1`, the IC50 [1] is reported as 1920 nM and the viability at 24 h, 10 µM [2] is reported as 91.9%.
With `O=C(COc1ccc2c(=O)c3ccccc3oc2c1)NC1CCOCC1` the IC50 [1] was 3900 nM and the viability at 24 h, 10 µM [2] was 80.6%.
`CN1CCN(C(=O)COc2ccc3c(=O)c4ccccc4oc3c2)CC1` gave an IC50 [1] of 2250 nM and a viability at 24 h, 10 µM [2] of 91.6%.
Compound `O=C(COc1ccc2c(=O)c3ccccc3oc2c1)NCc1ccccc1` has an IC50 [1] of 2410 nM and a viability at 24 h, 10 µM [2] of 79%.
Compound `O=C(COc1ccc2c(=O)c3ccccc3oc2c1)NCCc1ccccc1` has an IC50 [1] of 2570 nM and a viability at 24 h, 10 µM [2] of 96.4%.
Work on `O=C(COc1ccc2c(=O)c3ccccc3oc2c1)NCc1ccncc1` yielded an IC50 [1] of 6380 nM and a viability at 24 h, 10 µM [2] of 102%.
For `O=C(COc1ccc2c(=O)c3ccccc3oc2c1)NCc1ccc(Cl)c(Cl)c1`, the IC50 [1] was 2890 nM and the viability at 24 h, 10 µM [2] was 54.6%.
Compound `O=C(COc1ccc2c(=O)c3ccccc3oc2c1)NCCc1ccc(Cl)c(Cl)c1` has an IC50 [1] of 3280 nM and a viability at 24 h, 10 µM [2] of 41.1%.
In the case of `O=C(COc1ccc2c(=O)c3ccccc3oc2c1)NC[C@@H](O)c1ccccc1`, the IC50 [1] is reported as 12500 nM and the viability at 24 h, 10 µM [2] is reported as 100%.
In the case of `O=C(COc1ccc2c(=O)c3ccccc3oc2c1)N1CCNCC1`, the IC50 [1] is reported as 2150 nM, the viability at 24 h, 10 µM [2] is reported as 101% and the Activity [3] is reported as “Active”. The Activity [4] was “inactive”.
